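Interpolation was linear, between the two tested concentrations surrounding the appropriate level; five concentrations were tested over 48 hours in 96-well plates. The concentration for full growth arrest is given as TGI.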 Some results are limits rather than exact numbers.

Some test systems named below: A498 renal; CCRF-CEM leukemia; COLO 205 colon; DU-145 prostate; HL-60(TB) leukemia; HOP-62 NSCLC; HOP-92 NSCLC; LOX IMVI melanoma; MOLT-4 leukemia; NCI-H460 lung; NCI-H522 lung; NCI/ADR-RES ovarian; RXF 393 renal; SF-268 CNS; SK-OV-3 ovarian; SR leukemia; SW-620 colon; T-47D breast.
What all share (experiment): NCI anticancer screen, dose series, 48 h

As for `C#CCOC(=O)c1ccccc1O`, the TGI with A498 renal, in the assay on CCRF-CEM leukemia, in the assay on COLO 205 colon, with DU-145 prostate, in the assay with HL-60(TB) leukemia and in the assay on HOP-62 NSCLC was above 100 µM throughout. For the same molecule, the TGI in the assay with HOP-92 NSCLC, in the assay with LOX IMVI melanoma, in the assay with MOLT-4 leukemia, in the assay with NCI-H460 lung, in the assay on NCI-H522 lung and in the assay on NCI/ADR-RES ovarian was above 100 µM throughout. In addition, the TGI in the assay on RXF 393 renal, in the assay with SF-268 CNS, with SK-OV-3 ovarian, with SR leukemia, in the assay on SW-620 colon and in the assay with T-47D breast was above 100 µM throughout.

As to `CCN(CC)CC(=O)Nc1c(C(N)=O)nnn1Cc1cc(Cl)c(C(=O)c2ccc(Cl)cc2)c(Cl)c1`, the TGI was above 100 µM with A498 renal; 41.5 µM in the assay on CCRF-CEM leukemia; 33.2 µM in the assay with COLO 205 colon; 90.2 µM in the assay on DU-145 prostate; 39.5 µM in the assay on HL-60(TB) leukemia; 34.2 µM in the assay with HOP-62 NSCLC. Also, the TGI with HOP-92 NSCLC turned out to be 53.2 µM; with LOX IMVI melanoma, 32.1 µM; with MOLT-4 leukemia, 56 µM; with NCI-H522 lung it was 41.3 µM; with NCI/ADR-RES ovarian, 34.7 µM; with RXF 393 renal, 23.8 µM. Also, the TGI with SF-268 CNS came to 45.5 µM; with SK-OV-3 ovarian, 51.5 µM; in the assay with SR leukemia, 68.9 µM; with SW-620 colon, 40.4 µM; in the assay on T-47D breast, 61.9 µM.

`COc1ccc(NC(=O)CC(=O)N2N=C(N3CCCCC3)CC2c2ccccc2)cc1` (configuration not stated): the TGI in the assay with A498 renal, with CCRF-CEM leukemia, in the assay with COLO 205 colon, with DU-145 prostate, with HL-60(TB) leukemia and in the assay on HOP-62 NSCLC was above 100 µM each time. Besides, the TGI in the assay on HOP-92 NSCLC, in the assay with LOX IMVI melanoma, with MOLT-4 leukemia, in the assay on NCI-H460 lung, with NCI-H522 lung and in the assay on NCI/ADR-RES ovarian was above 100 µM in each case. Further, the TGI in the assay with RXF 393 renal, with SF-268 CNS, in the assay on SR leukemia, in the assay on SW-620 colon and with T-47D breast was above 100 µM in each case.

Regarding `Cc1ccc([N+](=O)[O-])c2c(NCCNC(=O)Cn3ccnc3[N+](=O)[O-])ccnc12`, the TGI in the assay with A498 renal was above 100 µM; in the assay on CCRF-CEM leukemia, above 100 µM; with COLO 205 colon, above 100 µM; with DU-145 prostate it was above 100 µM; in the assay on HL-60(TB) leukemia, above 100 µM; with HOP-62 NSCLC, 48.7 µM. The TGI in the assay on HOP-92 NSCLC is 78.1 µM; in the assay with LOX IMVI melanoma, above 100 µM; in the assay with MOLT-4 leukemia, above 100 µM; in the assay on NCI-H460 lung, above 100 µM; with NCI-H522 lung, 38 µM; in the assay with NCI/ADR-RES ovarian it was above 100 µM. For the same molecule, the TGI with RXF 393 renal is 16.5 µM; with SF-268 CNS it was above 100 µM; with SK-OV-3 ovarian it was 59.7 µM; with SR leukemia, above 100 µM; with SW-620 colon it was above 100 µM; in the assay on T-47D breast it was above 100 µM.

For `COC(=O)/C=C/c1ccc2c(c1)CCC2`, the TGI in the assay with A498 renal was above 100 µM; with CCRF-CEM leukemia, above 100 µM; in the assay with DU-145 prostate, above 100 µM; in the assay with HL-60(TB) leukemia, 73.6 µM; with HOP-62 NSCLC, above 100 µM; with HOP-92 NSCLC it was 46.7 µM. Moreover, the TGI in the assay with LOX IMVI melanoma, with MOLT-4 leukemia, in the assay on NCI-H460 lung, in the assay on NCI-H522 lung, in the assay on NCI/ADR-RES ovarian and with RXF 393 renal was above 100 µM throughout. The TGI in the assay on SF-268 CNS is above 100 µM; in the assay on SK-OV-3 ovarian, above 100 µM; with SR leukemia, 72.9 µM; in the assay with SW-620 colon, above 100 µM; in the assay with T-47D breast it was above 100 µM.

For `CCCCCCCC1(N=[N+]=[N-])C(=O)c2ccccc2N(C)C1=O` (configuration not stated), the TGI was above 100 µM in the assay on A498 renal; above 100 µM in the assay on CCRF-CEM leukemia; above 100 µM in the assay on COLO 205 colon; above 100 µM with DU-145 prostate; 99.1 µM with HL-60(TB) leukemia; above 100 µM in the assay with HOP-62 NSCLC. The TGI with HOP-92 NSCLC is 89.6 µM; in the assay with LOX IMVI melanoma, above 100 µM; in the assay on MOLT-4 leukemia it was above 100 µM; in the assay with NCI-H460 lung it was above 100 µM; with NCI-H522 lung, above 100 µM; with NCI/ADR-RES ovarian, above 100 µM. Moreover, the TGI in the assay with RXF 393 renal, in the assay with SF-268 CNS, in the assay with SK-OV-3 ovarian, with SR leukemia, with SW-620 colon and with T-47D breast was above 100 µM throughout.

For the molecule `COC(=O)[C@@H]1CN(C(=O)c2ccccc2)C(=O)N1`, the TGI in the assay with A498 renal, in the assay with CCRF-CEM leukemia, with DU-145 prostate, with HL-60(TB) leukemia, with HOP-62 NSCLC and with HOP-92 NSCLC was above 100 µM each time. Also, the TGI in the assay with LOX IMVI melanoma, with MOLT-4 leukemia, in the assay on NCI-H460 lung, with NCI-H522 lung, in the assay with NCI/ADR-RES ovarian and with RXF 393 renal was above 100 µM in each case. Further, the TGI with SF-268 CNS, in the assay with SR leukemia, with SW-620 colon and in the assay on T-47D breast was above 100 µM in each case.

As to `OCC(CN1CCCCC1)(CN1CCCCC1)CN1CCCCC1`, the TGI in the assay on A498 renal, in the assay on CCRF-CEM leukemia, with COLO 205 colon, with DU-145 prostate, in the assay with HL-60(TB) leukemia and with HOP-62 NSCLC was above 100 µM throughout. Moreover, the TGI in the assay on HOP-92 NSCLC, in the assay on LOX IMVI melanoma, with MOLT-4 leukemia, in the assay on NCI-H460 lung, with NCI-H522 lung and in the assay with NCI/ADR-RES ovarian was above 100 µM in each case. The TGI in the assay on RXF 393 renal, in the assay on SF-268 CNS, with SK-OV-3 ovarian, with SR leukemia, with SW-620 colon and in the assay with T-47D breast was above 100 µM in each case.

`COC1=C2CC(C)CC(OC)[C@@H](OC(=O)CCN)[C@H](C)/C=C(\C)C(OC(N)=O)C(OC)/C=C\C=C(/C)C(=O)NC(=CC1=O)C2=O` (some centres not stated): the TGI in the assay on A498 renal came out at 31.2 µM; in the assay with CCRF-CEM leukemia it was 1.49 µM; in the assay on COLO 205 colon, 0.964 µM; in the assay with DU-145 prostate, 20.8 µM; in the assay on HL-60(TB) leukemia, 0.757 µM; with HOP-62 NSCLC, 15.4 µM. Besides, the TGI amounted to 2.05 µM in the assay with HOP-92 NSCLC; 2.22 µM in the assay with LOX IMVI melanoma; 2.53 µM in the assay on MOLT-4 leukemia; 24.4 µM with NCI-H460 lung; 0.658 µM with NCI-H522 lung; 34.5 µM in the assay with NCI/ADR-RES ovarian. In addition, the TGI in the assay with RXF 393 renal was 17.5 µM; with SF-268 CNS, 26.2 µM; in the assay with SK-OV-3 ovarian it was 25.4 µM; in the assay with SR leukemia it was 8.71 µM; in the assay with SW-620 colon, 1.48 µM; in the assay on T-47D breast, 1.68 µM.

In the case of `CCCCON1C[C@@H](O)C(O)[C@@H](O)C1` (some centres not stated), the TGI with A498 renal, in the assay with CCRF-CEM leukemia, in the assay with COLO 205 colon, in the assay with DU-145 prostate, with HL-60(TB) leukemia and in the assay with HOP-62 NSCLC was above 100 µM in each case. Further, the TGI in the assay with HOP-92 NSCLC, with LOX IMVI melanoma, in the assay on MOLT-4 leukemia, in the assay with NCI-H460 lung, with NCI-H522 lung and in the assay on NCI/ADR-RES ovarian was above 100 µM throughout. For the same molecule, the TGI with RXF 393 renal, in the assay with SF-268 CNS, with SR leukemia, in the assay with SW-620 colon and with T-47D breast was above 100 µM throughout.

In the case of `CC1=NN(C(=O)CC(=O)Nc2ccccc2C)C(=O)C1N=Nc1ccc(C(=O)O)cc1` (configuration not stated), the TGI in the assay with A498 renal, in the assay on CCRF-CEM leukemia, in the assay with COLO 205 colon, with DU-145 prostate, with HL-60(TB) leukemia and with HOP-62 NSCLC was above 100 µM in each case. Also, the TGI with HOP-92 NSCLC, in the assay with LOX IMVI melanoma, in the assay with MOLT-4 leukemia, with NCI-H460 lung, with NCI-H522 lung and in the assay on NCI/ADR-RES ovarian was above 100 µM throughout. The TGI in the assay on RXF 393 renal, in the assay with SF-268 CNS, in the assay on SR leukemia, with SW-620 colon and in the assay with T-47D breast was above 100 µM each time.

Turning to `COc1cc(N=CN(C)C)c2ncccc2c1`, the TGI in the assay on A498 renal, in the assay on CCRF-CEM leukemia, in the assay with COLO 205 colon, in the assay with DU-145 prostate, in the assay on HL-60(TB) leukemia and in the assay on HOP-62 NSCLC was above 100 µM throughout. The TGI in the assay on HOP-92 NSCLC, in the assay with LOX IMVI melanoma, in the assay with MOLT-4 leukemia, in the assay with NCI-H522 lung, in the assay on NCI/ADR-RES ovarian and in the assay on RXF 393 renal was above 100 µM in each case. Moreover, the TGI in the assay with SF-268 CNS is above 100 µM; in the assay on SK-OV-3 ovarian, above 100 µM; with SR leukemia, 19.3 µM; in the assay on T-47D breast, above 100 µM.

The record behind these values is PubChem BioAssay (NCI).
